Source: ChEMBL document CHEMBL1909294, “Translating clinical findings into knowledge in drug safety evaluation--drug induced liver injury prediction system (DILIps)” (PLoS Comput Biol, 2011)

How the values were obtained:
Hepatotoxicity [1] = system: Hepatotoxicity;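 as to HepSE Combined Scores: combined hepatic side effect score as listed in the training data of the Drug Induced Liver Injury Prediction System (DILIps)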;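 as to HepSE bilirubinemia: bilirubinemia hepatic side effect score drawn from the DILIps training data, a prediction system for drug-induced liver injury; call rule not given here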;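 as to HepSE cholecystitis: Cholecystitis-related hepatic side effect score drawn from the DILIps (drug-induced liver injury prediction) training data set; call rule not given here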;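 as to HepSE cholelithiasis: hepatic side effect score for cholelithiasis, drawn from the DILIps training data for predicting drug-induced liver injury; call rule not given here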;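 as to HepSE cirrhosis: cirrhosis hepatic side effect score taken from the DILIps (drug-induced liver injury prediction) training set; call rule not given here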;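 as to HepSE liver function tests abnormal: hepatic side effect score taken from the DILIps (drug-induced liver injury prediction system) training data, here covering abnormal liver function test findings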
Hepatotoxicity [2] = system: Hepatotoxicity; remark: listed apart in the source;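 as to HepSE Combined Scores: combined hepatic side effect score as listed in the training data of the Drug Induced Liver Injury Prediction System (DILIps)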;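 as to HepSE bilirubinemia: bilirubinemia hepatic side effect score drawn from the DILIps training data, a prediction system for drug-induced liver injury; call rule not given here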;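 as to HepSE cholecystitis: Cholecystitis-related hepatic side effect score drawn from the DILIps (drug-induced liver injury prediction) training data set; call rule not given here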;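 as to HepSE cholelithiasis: hepatic side effect score for cholelithiasis, drawn from the DILIps training data for predicting drug-induced liver injury; call rule not given here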;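 as to HepSE cirrhosis: cirrhosis hepatic side effect score taken from the DILIps (drug-induced liver injury prediction) training set; call rule not given here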;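 as to HepSE liver function tests abnormal: hepatic side effect score taken from the DILIps (drug-induced liver injury prediction system) training data, here covering abnormal liver function test findings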
Hepatotoxicity [3] = system: Hepatotoxicity; remark: listed apart in the source;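 as to HepSE Combined Scores: combined hepatic side effect score as listed in the training data of the Drug Induced Liver Injury Prediction System (DILIps)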;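 as to HepSE bilirubinemia: bilirubinemia hepatic side effect score drawn from the DILIps training data, a prediction system for drug-induced liver injury; call rule not given here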;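 as to HepSE cholecystitis: Cholecystitis-related hepatic side effect score drawn from the DILIps (drug-induced liver injury prediction) training data set; call rule not given here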;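 as to HepSE cholelithiasis: hepatic side effect score for cholelithiasis, drawn from the DILIps training data for predicting drug-induced liver injury; call rule not given here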;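 as to HepSE cirrhosis: cirrhosis hepatic side effect score taken from the DILIps (drug-induced liver injury prediction) training set; call rule not given here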;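 as to HepSE liver function tests abnormal: hepatic side effect score taken from the DILIps (drug-induced liver injury prediction system) training data, here covering abnormal liver function test findings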
Hepatotoxicity [4] = system: Hepatotoxicity; remark: listed apart in the source;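 as to HepSE Combined Scores: combined hepatic side effect score as listed in the training data of the Drug Induced Liver Injury Prediction System (DILIps)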;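 as to HepSE bilirubinemia: bilirubinemia hepatic side effect score drawn from the DILIps training data, a prediction system for drug-induced liver injury; call rule not given here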;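 as to HepSE cholecystitis: Cholecystitis-related hepatic side effect score drawn from the DILIps (drug-induced liver injury prediction) training data set; call rule not given here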;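 as to HepSE cholelithiasis: hepatic side effect score for cholelithiasis, drawn from the DILIps training data for predicting drug-induced liver injury; call rule not given here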;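 as to HepSE liver function tests abnormal: hepatic side effect score taken from the DILIps (drug-induced liver injury prediction system) training data, here covering abnormal liver function test findings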
Hepatotoxicity [5] = system: Hepatotoxicity; remark: listed apart in the source
Hepatotoxicity [6] = system: Hepatotoxicity; remark: listed apart in the source
Hepatotoxicity [7] = system: Hepatotoxicity; remark: listed apart in the source
Hepatotoxicity [8] = system: Hepatotoxicity; remark: listed apart in the source
Hepatotoxicity [9] = system: Hepatotoxicity; remark: listed apart in the source
Hepatotoxicity [10] = system: Hepatotoxicity; remark: listed apart in the source
Hepatotoxicity [11] = system: Hepatotoxicity; remark: listed apart in the source
Hepatotoxicity [12] = system: Hepatotoxicity; remark: listed apart in the source
Hepatotoxicity [13] = system: Hepatotoxicity; remark: listed apart in the source
Hepatotoxicity [14] = system: Hepatotoxicity; remark: listed apart in the source

Row | SMILES | HepSE_cholelithiasis (Hepatotoxicity [1]) | HepSE_liver function tests abnormal (Hepatotoxicity [2]) | HepSE_Combined Scores (Hepatotoxicity [3]) | HepSE_bilirubinemia (Hepatotoxicity [4]) | HepSE_cholecystitis (Hepatotoxicity [5]) | HepSE_cirrhosis (Hepatotoxicity [6]) | HepSE_elevated liver function tests (Hepatotoxicity [7]) | HepSE_liver disease (Hepatotoxicity [8]) | HepSE_liver fatty (Hepatotoxicity [9]) | HepSE_hepatic failure (Hepatotoxicity [10]) | HepSE_hepatic necrosis (Hepatotoxicity [11]) | HepSE_hepatitis (Hepatotoxicity [12]) | HepSE_jaundice (Hepatotoxicity [13]) | HepSE_hepatomegaly (Hepatotoxicity [14]) | further results
1 | CC1(C)S[C@@H]2[C@H](NC(=O)COc3ccccc3)C(=O)N2[C@H]1C(=O)O [PENICILLIN V] | 0 | 0 | 0 | 0 | 0 | 0 | 0 | 0 | 0 | 0 | 0 | 0 | 0 | 0 | –
2 | O=C(NCC(O)CO)c1c(I)c(C(=O)NCC(O)CO)c(I)c(N(CCO)C(=O)CO)c1I (stereo not drawn) [IOVERSOL] | 0 | 0 | 0 | 0 | 0 | 0 | 0 | 0 | 0 | 0 | 0 | 0 | 0 | 0 | –
3 | CNC1=Nc2ccc(Cl)cc2C(c2ccccc2)=[N+]([O-])C1 [CHLORDIAZEPOXIDE] | 0 | 0 | 1 | 0 | 0 | 0 | 0 | 0 | 0 | 0 | 0 | 0 | 1 | 0 | –
4 | CCOC(=O)C1=C(COCCN)NC(C)=C(C(=O)OC)C1c1ccccc1Cl (stereo not drawn) [AMLODIPINE] | 0 | 0 | 2 | 0 | 0 | 0 | 0 | 0 | 0 | 0 | 0 | 1 | 1 | 0 | –
5 | O=[N+]([O-])O[C@@H]1CO[C@H]2[C@@H]1OC[C@@H]2O [ISOSORBIDE MONONITRATE] | 0 | 0 | 2 | 0 | 1 | 0 | 0 | 0 | 0 | 0 | 0 | 0 | 0 | 1 | –
6 | Nc1nc(F)nc2c1ncn2[C@@H]1O[C@H](CO)[C@@H](O)[C@@H]1O [FLUDARABINE] | 1 | 0 | 2 | 0 | 0 | 0 | 0 | 0 | 0 | 1 | 0 | 0 | 0 | 0 | –
7 | O=P1(N(CCCl)CCCl)NCCCO1 (stereo not drawn) [CYCLOPHOSPHAMIDE ANHYDROUS] | – | – | – | – | – | – | – | – | – | – | – | – | – | – | HepSE_cholelithiasis (Hepatotoxicity [1]; Liver): 0; HepSE_liver function tests abnormal (Hepatotoxicity [2]; Liver): 0; HepSE_Combined Scores (Hepatotoxicity [3]; Liver): 3; HepSE_bilirubinemia (Hepatotoxicity [4]; Liver): 1; HepSE_cholecystitis (Hepatotoxicity [5]; Liver): 0; HepSE_cirrhosis (Hepatotoxicity [6]; Liver): 0; HepSE_elevated liver function tests (Hepatotoxicity [7]; Liver): 0; HepSE_liver disease (Hepatotoxicity [8]; Liver): 0; HepSE_liver fatty (Hepatotoxicity [9]; Liver): 0; HepSE_hepatic failure (Hepatotoxicity [10]; Liver): 0; HepSE_hepatic necrosis (Hepatotoxicity [11]; Liver): 0; HepSE_hepatitis (Hepatotoxicity [12]; Liver): 0; HepSE_jaundice (Hepatotoxicity [13]; Liver): 1; HepSE_hepatomegaly (Hepatotoxicity [14]; Liver): 1
8 | CCOC(=O)Nc1ccc2c(c1)N(C(=O)CCN1CCOCC1)c1ccccc1S2 [MORICIZINE] | 0 | 0 | 2 | 0 | 0 | 0 | 0 | 0 | 0 | 0 | 0 | 1 | 1 | 0 | –
9 | Cc1onc(-c2ccccc2)c1-c1ccc(S(N)(=O)=O)cc1 [VALDECOXIB] | 1 | 0 | 2 | 0 | 0 | 0 | 0 | 0 | 0 | 0 | 0 | 1 | 0 | 0 | –
10 | O=C(O)CCC(=O)O.O=C(O[C@H]1CN2CCC1CC2)N1CCc2ccccc2[C@@H]1c1ccccc1 [SOLIFENACIN SUCCINATE] | 0 | 1 | 1 | 0 | 0 | 0 | 0 | 0 | 0 | 0 | 0 | 0 | 0 | 0 | –
11 | CC[C@]1(O)C[C@@H]2CN(CCc3c([nH]c4ccccc34)[C@@](C(=O)OC)(c3cc4c(cc3OC)N(C)[C@H]3[C@@](O)(C(=O)OC)[C@H](OC(C)=O)[C@]5(CC)C=CCN6CC[C@]43[C@@H]65)C2)C1 [VINBLASTINE] | 0 | 0 | 0 | 0 | 0 | 0 | 0 | 0 | 0 | 0 | 0 | 0 | 0 | 0 | –
12 | CCN[C@H]1CN(CCCOC)S(=O)(=O)c2sc(S(N)(=O)=O)cc21 [BRINZOLAMIDE] | 0 | 0 | 0 | 0 | 0 | 0 | 0 | 0 | 0 | 0 | 0 | 0 | 0 | 0 | –
13 | O=C(OOC(=O)c1ccccc1)c1ccccc1 [BENZOYL PEROXIDE] | 0 | 0 | 0 | 0 | 0 | 0 | 0 | 0 | 0 | 0 | 0 | 0 | 0 | 0 | –
14 | CCNC(=O)[C@@H]1CCCN1C(=O)[C@H](CCCNC(=N)N)NC(=O)[C@H](CC(C)C)NC(=O)[C@@H](COC(C)(C)C)NC(=O)[C@H](Cc1ccc(O)cc1)NC(=O)[C@H](CO)NC(=O)[C@H](Cc1c[nH]c2ccccc12)NC(=O)[C@H](Cc1cnc[nH]1)NC(=O)[C@@H]1CCC(=O)N1 [BUSERELIN] | 0 | 0 | 0 | 0 | 0 | 0 | 0 | 0 | 0 | 0 | 0 | 0 | 0 | 0 | –
15 | CC(=O)OCC[N+](C)(C)C [ACETYLCHOLINE] | – | – | – | – | – | – | – | – | – | – | – | – | – | – | HepSE_cholelithiasis (Hepatotoxicity [1]; Liver): 0; HepSE_liver function tests abnormal (Hepatotoxicity [2]; Liver): 0; HepSE_Combined Scores (Hepatotoxicity [3]; Liver): 0; HepSE_bilirubinemia (Hepatotoxicity [4]; Liver): 0; HepSE_cholecystitis (Hepatotoxicity [5]; Liver): 0; HepSE_cirrhosis (Hepatotoxicity [6]; Liver): 0; HepSE_elevated liver function tests (Hepatotoxicity [7]; Liver): 0; HepSE_liver disease (Hepatotoxicity [8]; Liver): 0; HepSE_liver fatty (Hepatotoxicity [9]; Liver): 0; HepSE_hepatic failure (Hepatotoxicity [10]; Liver): 0; HepSE_hepatic necrosis (Hepatotoxicity [11]; Liver): 0; HepSE_hepatitis (Hepatotoxicity [12]; Liver): 0; HepSE_jaundice (Hepatotoxicity [13]; Liver): 0; HepSE_hepatomegaly (Hepatotoxicity [14]; Liver): 0
16 | C=C1/C(=C\C=C2/CCC[C@]3(C)[C@@H]([C@H](C)CCCC(C)(C)O)CC[C@@H]23)C[C@@H](O)C[C@@H]1O [CALCITRIOL] | 0 | 0 | 0 | 0 | 0 | 0 | 0 | 0 | 0 | 0 | 0 | 0 | 0 | 0 | –
17 | Cc1cccc([C@H](C)c2cnc[nH]2)c1C [DEXMEDETOMIDINE] | – | – | – | – | – | – | – | – | – | – | – | – | – | – | HepSE_cholelithiasis (Hepatotoxicity [1]; Liver): 0; HepSE_liver function tests abnormal (Hepatotoxicity [2]; Liver): 0; HepSE_Combined Scores (Hepatotoxicity [3]; Liver): 1; HepSE_bilirubinemia (Hepatotoxicity [4]; Liver): 1; HepSE_cholecystitis (Hepatotoxicity [5]; Liver): 0; HepSE_cirrhosis (Hepatotoxicity [6]; Liver): 0; HepSE_elevated liver function tests (Hepatotoxicity [7]; Liver): 0; HepSE_liver disease (Hepatotoxicity [8]; Liver): 0; HepSE_liver fatty (Hepatotoxicity [9]; Liver): 0; HepSE_hepatic failure (Hepatotoxicity [10]; Liver): 0; HepSE_hepatic necrosis (Hepatotoxicity [11]; Liver): 0; HepSE_hepatitis (Hepatotoxicity [12]; Liver): 0; HepSE_jaundice (Hepatotoxicity [13]; Liver): 0; HepSE_hepatomegaly (Hepatotoxicity [14]; Liver): 0
